Where a name gives a salt, the structure may show the parent alone.

T1 sequence (Q92633 whole entry): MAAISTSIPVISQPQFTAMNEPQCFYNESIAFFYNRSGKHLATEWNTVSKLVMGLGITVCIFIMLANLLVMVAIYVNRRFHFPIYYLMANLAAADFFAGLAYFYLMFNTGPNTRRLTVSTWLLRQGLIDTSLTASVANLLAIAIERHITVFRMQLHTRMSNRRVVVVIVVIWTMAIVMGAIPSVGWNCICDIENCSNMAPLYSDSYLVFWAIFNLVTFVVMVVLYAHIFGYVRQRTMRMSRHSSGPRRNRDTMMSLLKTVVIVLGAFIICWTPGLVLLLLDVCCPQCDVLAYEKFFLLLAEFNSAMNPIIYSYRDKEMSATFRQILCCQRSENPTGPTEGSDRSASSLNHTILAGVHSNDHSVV

This experiment addresses T1, human LPA1 (Homo sapiens, UniProt Q92633).
T1 construct: expressed in transfected cells; host or cells: Chinese hamster ovary (CHO) cells
The experiment can be described thus: LPA1 functional antagonist assay (LPA-induced calcium flux in CHO cells overexpressing human LPA1). Type of experiment: cell-based. To be noted: inhibition of calcium flux induced by 10 nM LPA, CHO cells overexpressing human LPA1; read-out: hLPA1 IC50. The protocol:
The effectiveness of compounds of the present invention as LPA1 inhibitors can be determined in an LPA1 functional antagonist assay as follows:
Chinese hamster ovary cells overexpressing human LPA1 were plated overnight (15,000 cells/well) in poly-D-lysine coated 384-well microplates (Greiner bio-one, Cat #781946) in DMEM/F12 medium (Gibco, Cat #11039). Following overnight culture, cells were loaded with calcium indicator dye (AAT Bioquest Inc, Cat #34601) for 30 minutes at 37° C. The cells were then equilibrated to room temperature for 30 minutes before the assay. Test compounds solubilized in DMSO were transferred to 384 well non-binding surface plates (Corning, Cat #3575) using the Labcyte Echo acoustic dispense and diluted with assay buffer [IX HBSS with calcium/magnesium (Gibco Cat #14025-092), 20 mM HEPES (Gibco Cat #15630-080) and 0.1% fatty acid free BSA (Sigma Cat #A9205)] to a final concentration of 0.5% DMSO. Diluted compounds were added to the cells by FDSS6000 (Hamamatsu) at final concentrations ranging from 0.08 nM to 5 μM. and were then incubated for 20 min at room temperature at which time LPA (Avanti Polar Lipids Cat #857130C) was added at final concentrations of 10 nM to stimulate the cells. The compound IC50 value was defined as the concentration of test compound which inhibited 50% of the calcium flux induced by LPA alone. IC50 values were determined by fitting data to a 4-parameter logistic equation (GraphPad Prism, San Diego Calif.).
In general terms: A change in cytosolic calcium serves as a functional read-out for many receptors and channels.
With `CC[C@@H](OC)c1nc(NCc2c(-c3ccc(O[C@H]4CCC[C@H](C(=O)O)C4)c(C)n3)nnn2C)no1` (single isomer, unassigned) [Example 216], the concentration for half-maximal inhibition (IC50) (in general, the midpoint of a concentration-inhibition curve) turned out to be 121 nM. With `Cc1nc(-c2nnn(C)c2CNc2nsc(C3CC3)n2)ccc1O[C@H]1CCC[C@H](C(=O)O)C1` [Example 1, (1 S,3 S)-3-((6-(5-(((5-Cyclopropyl-1,2,4-thiadiazol-3-yl)amino)methyl)-1-methyl-1H-1,2,3-triazol-4-yl)-2-methylpyridin-3-yl)oxy)cyclohexane-1-carboxylic acid] the figure was 1180 nM; with `CCCc1nnc(NCc2c(-c3ccc(O[C@H]4CCC[C@H](C(=O)O)C4)c(C)n3)nnn2C)s1` [Example 2, (1 S,3S)-3-((2-Methyl-6-(1-methyl-5-(((5-propyl-1,3,4-thiadiazol-2-yl)amino)methyl)-1H-1,2,3-triazol-4-yl)pyridin-3-yl)oxy)cyclohexanecarboxylic acid], 185 nM.

As for `Cc1nc(-c2nnn(C)c2CNc2nc(C(C)(C)C)ns2)ccc1O[C@H]1CCC[C@H](C(=O)O)C1` [Example 3, (1 S,3 S)-3-((6-(5-(((3-(tert-Butyl)-1,2,4-thiadiazol-5-yl)amino)methyl)-1-methyl-1H-1,2,3-triazol-4-yl)-2-methylpyridin-3-yl)oxy)cyclohexanecarboxylic acid], the IC50 turned out to be 236 nM. With `COc1nc(NCc2c(-c3ccc(O[C@H]4CCC[C@H](C(=O)O)C4)c(C)n3)nnn2C)ns1` [Example 4] the figure was 1120 nM; with `CCOc1nc(NCc2c(-c3ccc(O[C@H]4CCC[C@H](C(=O)O)C4)c(C)n3)nnn2C)ns1` [Example 5], 28 nM; with `Cc1nc(-c2nnn(C)c2CNc2nsc(-c3ccccc3)n2)ccc1O[C@H]1CCC[C@H](C(=O)O)C1` [Example 6], 18 nM. Under `Cc1nc(-c2nnn(C)c2CNc2nnc(C3CC3)s2)ccc1O[C@H]1CCC[C@H](C(=O)O)C1` [Example 7] stands 2240 nM. With `Cc1nc(-c2nnn(C)c2CNc2nnc(CC(C)C)s2)ccc1O[C@H]1CCC[C@H](C(=O)O)C1` [Example 8] the figure was 455 nM; with `Cc1nc(-c2nnn(C)c2CNc2nc(-c3ccccc3)ns2)ccc1O[C@H]1CCC[C@H](C(=O)O)C1` [Example 9], 38 nM. `Cc1nc(-c2nnn(C)c2CNc2nc(C(C)C)ns2)ccc1O[C@H]1CCC[C@H](C(=O)O)C1` [Example 10]: the concentration for half-maximal inhibition (IC50) was found to be 71 nM. With `CCCn1cc(NCc2c(-c3ccc(O[C@H]4CCC[C@H](C(=O)O)C4)c(C)n3)nnn2C)nn1` [Example 11] the figure was 705 nM.

For the compound `Cc1nc(-c2nnn(C)c2CNc2nc(C(C)C)cs2)ccc1O[C@H]1CCC[C@H](C(=O)O)C1` [Example 12], the concentration for half-maximal inhibition (IC50) was 745 nM.

Regarding `Cc1nc(-c2nnn(C)c2CNc2nc(C3CCC3)cs2)ccc1O[C@H]1CCC[C@H](C(=O)O)C1` [Example 13], the IC50 was 13 nM. `Cc1nc(-c2nnn(C)c2CNc2nc(-c3ccccc3)cs2)ccc1O[C@H]1CCC[C@H](C(=O)O)C1` [Example 14]: the IC50 worked out at 130 nM. Take `Cc1nc(-c2nnn(C)c2CNc2ncc(C(C)C)s2)ccc1O[C@H]1CCC[C@H](C(=O)O)C1` [Example 15]: the IC50 is 55 nM. With `Cc1nc(-c2nnn(C)c2CNc2ncc(-c3ccccc3)s2)ccc1O[C@H]1CCC[C@H](C(=O)O)C1` [Example 16] the figure was 67 nM; with `Cc1nc(-c2nnn(C)c2CNc2nc3c(s2)CCCC3)ccc1O[C@H]1CCC[C@H](C(=O)O)C1` [Example 17], 1200 nM. Under `Cc1nc(-c2nnn(C)c2CNc2nc(-c3ccccc3)c(C)s2)ccc1O[C@H]1CCC[C@H](C(=O)O)C1` [Example 18] stands 15 nM. Take `CCc1cnc(NCc2c(-c3ccc(O[C@H]4CCC[C@H](C(=O)O)C4)c(C)n3)nnn2C)o1` [Example 19]: the IC50 stood at 106 nM.

As for `Cc1nc(-c2nnn(C)c2CNc2ncc(-c3ccccn3)o2)ccc1O[C@H]1CCC[C@H](C(=O)O)C1` [Example 20], the IC50 amounted to 99 nM. With `Cc1nc(-c2nnn(C)c2CNc2nc(-c3ccccc3)c(F)s2)ccc1O[C@H]1CCC[C@H](C(=O)O)C1` [Example 21, (1 S,3 S)-3-((6-(5-(((5-fluoro-4-phenylthiazol-2-yl)amino)methyl)-1-methyl-1H-1,2,3-triazol-4-yl)-2-methylpyridin-3-yl)oxy)cyclohexane-1-carboxylic acid] the figure was 18 nM. With `Cc1nc(-c2nnn(C)c2CNc2cnn(CC(C)C)n2)ccc1O[C@H]1CCC[C@H](C(=O)O)C1` [Example 22, (1 S,3 S)-3-((6-(5-(((2-isobutyl-2H-1,2,3-triazol-4-yl)amino)methyl)-1-methyl-1H-1,2,3-triazol-4-yl)-2-methylpyridin-3-yl)oxy)cyclohexane-1-carboxylic acid] the figure was 42 nM; with `Cc1nc(-c2nnn(C)c2CNc2cn(CC(C)C)nn2)ccc1O[C@H]1CCC[C@H](C(=O)O)C1` [Example 23, (1 S,3 S)-3-((6-(5-(((1-isobutyl-1H-1,2,3-triazol-4-yl)amino)methyl)-1-methyl-1H-1,2,3-triazol-4-yl)-2-methylpyridin-3-yl)oxy)cyclohexane-1-carboxylic acid], 435 nM. Under `Cc1nc(-c2nnn(C)c2CNc2cnn(CC3CCC3)n2)ccc1O[C@H]1CCC[C@H](C(=O)O)C1` [Example 24, (1 S,3 S)-3-((6-(5-(((2-(cyclobutylmethyl)-2H-1,2,3-triazol-4-yl)amino)methyl)-1-methyl-1H-1,2,3-triazol-4-yl)-2-methylpyridin-3-yl)oxy)cyclohexane-1-carboxylic acid] stands 33 nM; under `Cc1nc(-c2nnn(C)c2CNc2ncn(CC(C)C)n2)ccc1O[C@H]1CCC[C@H](C(=O)O)C1` [Example 25, (1 S,3 S)-3-((6-(5-(((1-isobutyl-1H-1,2,4-triazol-3-yl)amino)methyl)-1-methyl-1H-1,2,3-triazol-4-yl)-2-methylpyridin-3-yl)oxy)cyclohexane-1-carboxylic acid], 125 nM; under `Cc1nc(-c2nnn(C)c2CNc2nc(C)c(C)s2)ccc1O[C@H]1CCC[C@H](C(=O)O)C1` [Example 26], 3650 nM. For the compound `Cc1nc(-c2nnn(C)c2CNc2cnn(C3CCCCC3)n2)ccc1O[C@H]1CCC[C@H](C(=O)O)C1` [Example 27], the IC50 was 100 nM. With `Cc1nc(-c2nnn(C)c2CNc2cnn(C3CCCC3)n2)ccc1O[C@H]1CCC[C@H](C(=O)O)C1` [Example 28], the 50% inhibitory concentration (IC50) is 39 nM.

For the compound `CCCn1ncc(NCc2c(-c3ccc(O[C@H]4CCC[C@H](C(=O)O)C4)c(C)n3)nnn2C)n1` [Example 29], the IC50 came out at 297 nM.

Take `Cc1nc(-c2nnn(C)c2CNc2cnn(C3CCC3)n2)ccc1O[C@H]1CCC[C@H](C(=O)O)C1` [Example 30]: the IC50 turned out to be 91 nM. Consider `Cc1nc(-c2nnn(C)c2CNc2cnn(CC3CC3)n2)ccc1O[C@H]1CCC[C@H](C(=O)O)C1` [Example 31], for which the 50% inhibitory concentration (IC50) was found to be 54 nM.

Take `Cc1nc(-c2nnn(C)c2CNc2cnn(-c3ccccc3)n2)ccc1O[C@H]1CCC[C@H](C(=O)O)C1` [Example 32]: the IC50 is 10 nM. Under `Cc1nc(-c2nnn(C)c2CNc2cnn(-c3ccc(F)cc3)n2)ccc1O[C@H]1CCC[C@H](C(=O)O)C1` [Example 33, (1 S,3 S)-3-((6-(5-(((2-(4-fluorophenyl)-2H-1,2,3-triazol-4-yl)amino)methyl)-1-methyl-1H-1,2,3-triazol-4-yl)-2-methylpyridin-3-yl)oxy)cyclohexane-1-carboxylic acid] stands 84 nM; under `Cc1nc(-c2nnn(C)c2CNc2ncn(Cc3ccccc3)n2)ccc1O[C@H]1CCC[C@H](C(=O)O)C1` [Example 34], 332 nM. Under `CCCn1cnc(NCc2c(-c3ccc(O[C@H]4CCC[C@H](C(=O)O)C4)c(C)n3)nnn2C)n1` [Example 35] stands 309 nM; under `Cc1nc(-c2nnn(C)c2CNc2ncn(C3CCCCC3)n2)ccc1O[C@H]1CCC[C@H](C(=O)O)C1` [Example 36], 147 nM; under `Cc1nc(-c2nnn(C)c2CNc2nc(C)n(-c3ccccc3)n2)ccc1O[C@H]1CCC[C@H](C(=O)O)C1` [Example 37], 46 nM.

Take `Cc1nc(-c2nnn(C)c2CNc2ncn(-c3ccccc3)n2)ccc1O[C@H]1CCC[C@H](C(=O)O)C1` [Example 38]: the IC50 worked out at 34 nM. With `Cc1nc(-c2nnn(C)c2CNc2ncn(-c3ccc(F)cc3)n2)ccc1O[C@H]1CCC[C@H](C(=O)O)C1` [Example 39] the figure was 61 nM; with `Cc1nc(-c2nnn(C)c2CNc2ncn(-c3cc(F)cc(F)c3)n2)ccc1O[C@H]1CCC[C@H](C(=O)O)C1` [Example 40], 46 nM; with `Cc1nc(-c2nnn(C)c2Cn2nc(Cc3ccccc3)oc2=N)ccc1O[C@H]1CCC[C@H](C(=O)O)C1` [Example 41, (1S,3S)-3-((6-(5-((5-Benzyl-2-imino-1,3,4-oxadiazol-3(2H)-yl)methyl)-1-methyl-1H-1,2,3-triazol-4-yl)-2-methylpyridin-3-yl)oxy)cyclohexane-1-carboxylic acid, bis TFA salt], 221 nM.

For the origin of these results see patent US11319315B2, “Cyclohexyl acid triazole azoles as LPA antagonists” (BRISTOL-MYERS SQUIBB COMPANY, priority 2017, dated 2022).
